Experiment [1] deals with Gram-negative bacteria (including P. aeruginosa, E. cloacae, K. pneumoniae, E. coli, and A. baumannii). Nature of the experiment: Inner membrane depolarization (diSC3-5 release). The format is cell-based. The note with it: equivalent or superior to melittin, LL37, RI-18, and PMBN. The source says: The mechanism of action of Chp peptides disclosed herein can also be evaluated by measuring the depolarization of the inner membrane of Gram-negative bacteria, including MDR and XDR strains. The inner membrane comprises […] phospholipids such as cardiolipin, phosphatidylglycerol, and phosphatidylserine. This creates a net negative charge at physiological pH, which is believed to enhance the binding of cationic peptides, including the Chp peptides disclosed herein. Upon permeabilization of the outer membrane, the ability of Chp peptides to induce dissipation of the cytoplasmic membrane electrical potential gradient (Ay) may be examined, for example by following the release of 3,3′-dipropylthiadicarbocyanine (diSC3-5) as a function of time compared to an untreated control. DiSC3-5 is a fluorophore that is a caged cation concentrated within the bacterial inner membrane and under the influence of the bacterial membrane electrical potential gradient. At high concentrations, diSC3-5 self-quenches, leading to the suppression of fluorescence. When the inner membrane deteriorates or becomes leaky for cations, including protons, the Δψ dissipates, which leads to a release of diSC3-5 and a subsequent increase in fluorescence. […] Without wishing to be bound by theory, it is believed that the adsorption and binding of Chp peptides to the inner membrane and insertion into the lipid bilayer results in membrane permeabilization and pore/ion channel formation, which is concomitant with the collapse of the membrane's electrical potential.

Experiment [2] has as its system M. smegmatis. In words: MIC against M. smegmatis. The note with it: M. smegmatis (MC 155); CAAT media. It counts as cell-based, Mycobacterium smegmatis.
The subject of experiment [3] is P. aeruginosa. In words: Checkerboard synergy assay (FICI) with antibiotics against P. aeruginosa. The format is cell-based, Pseudomonas aeruginosa. The note with it: for MIC (dual agent): GN370 + meropenem. The protocol:
Any known method to assess MIC may be used.
Checkerboards are constructed by first preparing columns of e.g., a 96-well polypropylene microtiter plate, wherein each well has the same amount of antibiotic diluted 2-fold along the horizontal axis. […] Bacteria are added to the drug combinations at concentrations of 1×10^5 […] in CAA, for example, with or without human serum or pulmonary surfactant. […] Summation fractional inhibitory concentrations (ΣFICs) are calculated for each drug and the minimum ΣFIC value (ΣFICmin) is used to determine the effect of the Chp peptide/antibiotic combination.
(§1) The synergy of GN370 with meropenem was evaluated against 3 different strains of P. aeruginosa and three different strains of B. cenocepacia.
(§2) GN370 was further tested in combination with up to seven additional antibiotics (in addition to meropenem) against a variety of bacterial strains, including P. aeruginosa, A. baumannii, E. coli, E. cloacae, and K. pneumoniae. GN370 and the subject antibiotics were tested in a checkerboard assay format, and FICI values were determined, wherein ≤0.5 indicates synergy, >0.5-≤1 indicates additive; and >1 indicates indifferent.

Experiment [4] concerns B. cenocepacia. Nature of the experiment: Checkerboard synergy assay with meropenem against B. cenocepacia. The format is cell-based, Burkholderia cenocepacia. To be noted: for MIC (dual agent): GN370 + meropenem.
From the text: (§3) In some embodiments, the Chp peptides disclosed herein or active fragments thereof reduce the minimum inhibitory concentration (MIC) of an antibiotic in the presence and/or absence of human serum, pulmonary surfactant, and/or sputum, including human sputum and human sputum from a cystic fibrosis patient. Any known method to assess MIC may be used. In some embodiments, a checkerboard assay is used to determine the effect of a Chp peptide or active fragment thereof on antibiotic concentration. The checkerboard assay is based on a modification of the CLSI method for MIC determination by broth microdilution (See Clinical and Laboratory Standards Institute (CLSI), CLSI. 2015. Methods for Dilution Antimicrobial Susceptibility Tests for Bacteria That Grow Aerobically; Approved Standard-10th Edition. Clinical and Laboratory Standards Institute, Wayne, PA, which is herein incorporated by reference in its entirety and Ceri et al. 1999. J. Clin. Microbiol. 37: 1771-1776, which is also herein incorporated by reference in its entirety).
(§4) Checkerboards are constructed by first preparing columns of e.g., a 96-well polypropylene microtiter plate, wherein each well has the same amount of antibiotic diluted 2-fold along the horizontal axis. […] The Chp peptide or active fragment thereof and antibiotic dilutions are then combined, so that each column has a constant amount of antibiotic and doubling dilutions of Chp peptide, while each row has a constant amount of Chp peptide and doubling dilutions of antibiotic. Each well thus has a unique combination of Chp peptide and antibiotic. Bacteria are added to the drug combinations at concentrations of 1×10^5 GFU/ml in CAA, for example, with or without human serum or pulmonary surfactant. […] Summation fractional inhibitory concentrations (ΣFICs) are calculated for each drug and the minimum ΣFIC value (ΣFICmin) is used to determine the effect of the Chp peptide/antibiotic combination.
as §1

Experiment [5] concerns E. coli. Nature of the experiment: Checkerboard synergy assay (FICI) against E. coli. It counts as cell-based, Escherichia coli. The note with it: E. coli ATCC 25922.
From the text: as §3, §4, §2

Where [6] appears, read: P. aeruginosa (ATCC 27853, CFS 1766).

One may read the MIC as the smallest concentration in the dilution series that meets the test's criterion for growth inhibition.

Converted amounts (≈) assume the structure as drawn. Where a SMILES comes first, the peptide text is derived from it. Where no end group is shown, it is not given here. [ ]: non-standard residue; d: D form.

Regarding `CC[C@H](C)[C@H](NC(=O)[C@@H](CCCNC(=N)N)NC(=O)[C@H](Cc1ccccc1)NC(=O)CNC(=O)CNC(=O)[C@@H](CCCNC(=N)N)NC(=O)[C@H](CCSC)NC(=O)[C@@H]1CCCN1C(=O)[C@@H](CCCNC(=N)N)NC(=O)[C@H](C)NC(=O)[C@@H](CCCNC(=N)N)NC(=O)[C@H](CC(C)C)NC(=O)[C@H](CC(N)=O)NC(=O)[C@@H](CCCNC(=N)N)NC(=O)[C@@H](CCCCN)NC(=O)[C@@H](CCCCN)NC(=O)[C@@H](NC(=O)[C@H](CC(N)=O)NC(=O)[C@@H](NC(=O)[C@H](C)NC(=O)CNC(=O)[C@@H](CCCNC(=N)N)NC(=O)[C@@H](NC(=O)[C@H](Cc1ccccc1)NC(=O)[C@@H](NC(=O)[C@@H](CCCCN)NC(=O)[C@@H](CCCNC(=N)N)NC(=O)[C@H](CO)NC(=O)[C@@H](CCCCN)NC(=O)[C@@H](CCCCN)NC(=O)[C@@H](CCCCN)NC(=O)[C@H](CO)NC(=O)[C@H](CC(C)C)NC(=O)[C@@H](CCCCN)NC(=O)[C@@H](CCCNC(=N)N)NC(=O)[C@@H](CCCNC(=N)N)NC(=O)[C@@H](CCCCN)NC(=O)[C@@H](N)CCSC)[C@@H](C)CC)[C@@H](C)O)C(C)C)C(C)C)C(=O)O` [AM3] (H-M[dK][dR][dR][dK]LS[dK][dK][dK]S[dR][dK]IFT[dR]GAVNV[dK][dK][dR]NL[dR]A[dR]PM[dR]GGF[dR]I-OH; N-terminus and C-terminus assumed), the “inner membrane depolarization (diSC3-5)” value in experiment [1] was “dose-dependent increase in membrane depolarization”. This compound also came in with a minimal inhibitory concentration (MIC) in experiment [2] of 1 µg/mL (≈ 0.219 µM).
Regarding `C[C@@H](O)[C@H]1C(=O)N2C(C(=O)O)=C(S[C@@H]3CN[C@H](C(=O)N(C)C)C3)[C@H](C)[C@H]12` [meropenem, reference compound], the MIC (alone) in experiment [3] (setting [6]) was 8 µg/mL; in experiment [3] (P. aeruginosa (CFS 2045)) it was 32 µg/mL; in experiment [3] (P. aeruginosa (CFS 2061)), 64 µg/mL; in experiment [4] (B. cenocepacia (CFS 2135)) it was 32 µg/mL; in experiment [4] (B. cenocepacia (CFS 2138)), 64 µg/mL; in experiment [4] (B. cenocepacia (CFS 2142)), 64 µg/mL. In addition, the MIC (dual agent) in experiment [3] (setting [6]) is 0.25 µg/mL; in experiment [3] (P. aeruginosa (CFS 2045)) it was 4 µg/mL; in experiment [3] (P. aeruginosa (CFS 2061)) it was 4 µg/mL; in experiment [4] (B. cenocepacia (CFS 2135)), 32 µg/mL; in experiment [4] (B. cenocepacia (CFS 2138)), 64 µg/mL; in experiment [4] (B. cenocepacia (CFS 2142)), 32 µg/mL. The “FICI of the antibiotic with GN370” value in experiment [3] (P. aeruginosa ATCC 27853, checkerboard) was determined as 0.375; in experiment [5] it was 0.5. For the same compound, in experiment [3] (P. aeruginosa strain AR-769), the Antibiotic MIC (single agent) came to 64 µg/mL. In addition, the “Antibiotic FIC” value in experiment [3] (P. aeruginosa strain AR-769, in combination with GN370) is 0.125. The “Antibiotic MIC (combo)” value in experiment [3] (P. aeruginosa strain AR-769, in combination with GN370, in µg/mL) is 8.
Take “MRLKMARRRYRLPRRRSRRLFSRTALRMHPRNRLRRIMRGGIRF [AM1]”: the “inner membrane depolarization (diSC3-5)” value in experiment [1] is on record as “dose-dependent increase in membrane depolarization”. The compound further displayed an MIC in experiment [2] of 4 µg/mL.
For “M[dR]L[dK]MA[dR][dR][dR]Y[dR]LP[dR][dR][dR]S[dR][dR]LFS[dR]TAL[dR]MHP[dR]N[dR]L[dR][dR]IM[dR]GGI[dR]F [AM2]”, the “inner membrane depolarization (diSC3-5)” value in experiment [1] is recorded as “dose-dependent increase in membrane depolarization”. The compound further gave a minimal inhibitory concentration (MIC) in experiment [2] of 0.5 µg/mL.

For the origin of these results see patent US20240181022A1, “AMURINS LYSINS, AND LYSIN-ANTIMICROBIAL PEPTIDE (AMP) CONSTRUCTS ACTIVE AGAINST GRAM-NEGATIVE BACTERIA” (priority 2021, published 2024).
